{
  "source": "ChEMBL document CHEMBL5723584",
  "about": "(2023)",
  "settings_in_all_cases": "Compound concentration 1.0 uM",
  "key": {"[1]": {"molecular_target": "Serine/threonine-protein kinase VRK1 (Homo sapiens) (UniProt Q99986)", "sequence (Q99986 whole entry)": "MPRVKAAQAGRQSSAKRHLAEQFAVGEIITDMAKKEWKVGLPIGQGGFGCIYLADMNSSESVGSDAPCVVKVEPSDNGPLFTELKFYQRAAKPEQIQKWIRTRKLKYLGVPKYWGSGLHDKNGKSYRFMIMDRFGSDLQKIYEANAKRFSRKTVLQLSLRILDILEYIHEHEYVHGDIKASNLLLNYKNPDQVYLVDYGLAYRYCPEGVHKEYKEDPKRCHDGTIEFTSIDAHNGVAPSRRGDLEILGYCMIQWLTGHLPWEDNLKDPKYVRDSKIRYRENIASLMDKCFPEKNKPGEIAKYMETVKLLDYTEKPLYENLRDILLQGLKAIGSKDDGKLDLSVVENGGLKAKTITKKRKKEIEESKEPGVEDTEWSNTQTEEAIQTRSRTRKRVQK", "assay": "activity of VRK1(h) at 1.0 µM in the Eurofins Kinase panel"}, "[2]": {"molecular_target": "Serine/threonine-protein kinase LATS2 (Homo sapiens) (UniProt Q9NRM7)", "assay": "activity of LATS2(h) at 1.0 µM in the Eurofins Kinase panel"}, "[3]": {"molecular_target": "Eukaryotic translation initiation factor 2-alpha kinase 1 (Homo sapiens) (UniProt Q9BQI3)", "assay": "activity of HRI(h) at 1.0 µM in the Eurofins Kinase panel"}, "[4]": {"molecular_target": "Inhibitor of nuclear factor kappa-B kinase subunit alpha (Homo sapiens) (UniProt O15111)", "sequence (O15111 whole entry)": "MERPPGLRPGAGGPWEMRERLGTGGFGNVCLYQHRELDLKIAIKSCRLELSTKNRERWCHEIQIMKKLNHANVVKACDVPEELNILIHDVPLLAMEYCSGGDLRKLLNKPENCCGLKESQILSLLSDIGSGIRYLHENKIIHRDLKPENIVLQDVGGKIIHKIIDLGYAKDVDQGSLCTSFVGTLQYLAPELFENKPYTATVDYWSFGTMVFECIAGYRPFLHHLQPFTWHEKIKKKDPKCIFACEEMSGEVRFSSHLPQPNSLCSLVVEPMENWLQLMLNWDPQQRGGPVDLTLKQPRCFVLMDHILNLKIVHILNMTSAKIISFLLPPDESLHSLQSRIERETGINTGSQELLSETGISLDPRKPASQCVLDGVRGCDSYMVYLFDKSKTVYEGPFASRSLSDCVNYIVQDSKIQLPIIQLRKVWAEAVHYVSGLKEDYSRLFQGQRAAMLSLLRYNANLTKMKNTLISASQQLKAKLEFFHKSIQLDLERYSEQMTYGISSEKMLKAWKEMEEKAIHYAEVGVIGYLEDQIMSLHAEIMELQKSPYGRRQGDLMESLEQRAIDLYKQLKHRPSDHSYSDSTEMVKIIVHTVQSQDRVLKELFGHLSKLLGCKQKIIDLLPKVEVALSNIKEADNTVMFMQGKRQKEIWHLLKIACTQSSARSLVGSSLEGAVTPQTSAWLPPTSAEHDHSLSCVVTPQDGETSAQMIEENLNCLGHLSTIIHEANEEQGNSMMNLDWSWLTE", "assay": "activity of IKKalpha(h) at 1.0 µM in the Eurofins Kinase panel"}, "[5]": {"molecular_target": "Serine/threonine-protein kinase TAO1 (Homo sapiens) (UniProt Q7L7X3)", "assay": "activity of TAO1(h) at 1.0 µM in the Eurofins Kinase panel"}, "[6]": {"molecular_target": "Ribosomal protein S6 kinase alpha-3 (Homo sapiens) (UniProt P51812)", "sequence (P51812 whole entry)": "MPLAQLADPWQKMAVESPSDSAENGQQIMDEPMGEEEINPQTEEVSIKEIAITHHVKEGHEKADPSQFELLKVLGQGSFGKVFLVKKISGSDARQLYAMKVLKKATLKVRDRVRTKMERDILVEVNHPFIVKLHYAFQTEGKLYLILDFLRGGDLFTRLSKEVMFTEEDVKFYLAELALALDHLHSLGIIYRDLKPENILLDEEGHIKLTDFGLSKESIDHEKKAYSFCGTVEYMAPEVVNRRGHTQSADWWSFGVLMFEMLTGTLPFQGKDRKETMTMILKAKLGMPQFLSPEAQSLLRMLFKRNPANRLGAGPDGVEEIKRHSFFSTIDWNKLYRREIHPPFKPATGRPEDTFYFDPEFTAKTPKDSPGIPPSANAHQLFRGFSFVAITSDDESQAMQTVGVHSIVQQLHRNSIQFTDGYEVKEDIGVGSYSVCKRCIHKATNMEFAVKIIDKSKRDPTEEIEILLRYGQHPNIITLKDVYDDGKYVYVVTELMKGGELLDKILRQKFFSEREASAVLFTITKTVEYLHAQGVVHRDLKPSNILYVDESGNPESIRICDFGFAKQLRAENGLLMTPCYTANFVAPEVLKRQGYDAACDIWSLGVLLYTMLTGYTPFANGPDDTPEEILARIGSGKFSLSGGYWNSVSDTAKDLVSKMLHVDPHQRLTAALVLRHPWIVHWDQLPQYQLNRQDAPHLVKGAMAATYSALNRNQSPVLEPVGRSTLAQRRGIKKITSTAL", "assay": "activity of Rsk2(h) at 1.0 µM in the Eurofins Kinase panel"}, "[7]": {"molecular_target": "Serine/threonine-protein kinase WNK1 (Homo sapiens) (UniProt Q9H4A3)", "assay": "activity of WNK1(h) at 1.0 µM in the Eurofins Kinase panel"}, "[8]": {"molecular_target": "Serine/threonine-protein kinase PAK 1 (Homo sapiens) (UniProt Q13153)", "assay": "activity of PAK1(h) at 1.0 µM in the Eurofins Kinase panel"}, "[9]": {"molecular_target": "Casein kinase I isoform gamma-2 (Homo sapiens) (UniProt P78368)", "assay": "activity of CK1gamma2(h) at 1.0 µM in the Eurofins Kinase panel"}, "[10]": {"molecular_target": "Serine/threonine-protein kinase 32C (Homo sapiens) (UniProt Q86UX6)", "assay": "activity of STK32C(h) at 1.0 µM in the Eurofins Kinase panel"}, "[11]": {"molecular_target": "CDK9/cyclin T1 (Homo sapiens) (UniProt O60563+P50750)", "assay": "activity of CDK9/cyclin T1(h) at 1.0 µM in the Eurofins Kinase panel", "format": "protein-complex assay"}, "[12]": {"molecular_target": "Eukaryotic translation initiation factor 2-alpha kinase 3 (Homo sapiens) (UniProt Q9NZJ5)", "assay": "activity of PEK(h) at 1.0 µM in the Eurofins Kinase panel"}, "[13]": {"molecular_target": "Ribosomal protein S6 kinase alpha-1 (Homo sapiens) (UniProt Q15418)", "assay": "activity of Rsk1(h) at 1.0 µM in the Eurofins Kinase panel"}, "[14]": {"molecular_target": "Ribosomal protein S6 kinase alpha-5 (Homo sapiens) (UniProt O75582)", "assay": "activity of MSK1(h) at 1.0 µM in the Eurofins Kinase panel"}, "[15]": {"molecular_target": "Serine/threonine-protein kinase MARK1 (Homo sapiens) (UniProt Q9P0L2)", "assay": "activity of MARK1(h) at 1.0 µM in the Eurofins Kinase panel"}, "[16]": {"molecular_target": "Serine/threonine-protein kinase VRK2 (Homo sapiens) (UniProt Q86Y07)", "assay": "activity of VRK2(h) at 1.0 µM in the Eurofins Kinase panel"}, "[17]": {"molecular_target": "Serine/threonine-protein kinase pim-1 (Homo sapiens) (UniProt P11309)", "assay": "activity of Pim-1(h) at 1.0 µM in the Eurofins Kinase panel"}, "[18]": {"molecular_target": "CDK12/Cyclin K (Homo sapiens) (UniProt O75909+Q9NYV4)", "assay": "activity of CDK12/cyclinK(h) at 1.0 µM in the Eurofins Kinase panel", "format": "protein-complex assay"}, "[19]": {"molecular_target": "Protein kinase C iota type (Homo sapiens) (UniProt P41743)", "assay": "activity of PKCiota(h) at 1.0 µM in the Eurofins Kinase panel"}, "[20]": {"molecular_target": "Serine/threonine-protein kinase Nek2 (Homo sapiens) (UniProt P51955)", "sequence (P51955 whole entry)": "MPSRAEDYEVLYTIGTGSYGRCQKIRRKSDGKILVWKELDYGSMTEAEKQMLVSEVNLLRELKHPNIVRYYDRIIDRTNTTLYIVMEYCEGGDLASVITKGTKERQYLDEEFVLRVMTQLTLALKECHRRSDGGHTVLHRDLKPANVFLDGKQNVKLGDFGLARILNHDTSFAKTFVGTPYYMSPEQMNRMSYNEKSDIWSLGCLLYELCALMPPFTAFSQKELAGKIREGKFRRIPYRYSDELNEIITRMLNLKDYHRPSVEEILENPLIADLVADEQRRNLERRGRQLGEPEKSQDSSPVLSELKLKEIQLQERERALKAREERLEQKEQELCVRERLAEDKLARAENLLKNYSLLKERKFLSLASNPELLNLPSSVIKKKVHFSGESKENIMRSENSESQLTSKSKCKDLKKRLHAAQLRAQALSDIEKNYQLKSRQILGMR", "assay": "activity of NEK2(h) at 1.0 µM in the Eurofins Kinase panel"}, "[21]": {"molecular_target": "TGF-beta receptor type-2 (Homo sapiens) (UniProt P37173)", "assay": "activity of TGFBR2(h) at 1.0 µM in the Eurofins Kinase panel"}, "[22]": {"molecular_target": "Dual specificity mitogen-activated protein kinase kinase 3 (Homo sapiens) (UniProt P46734)", "assay": "activity of MKK3(h) at 1.0 µM in the Eurofins Kinase panel"}, "[23]": {"molecular_target": "Cytoplasmic tyrosine-protein kinase BMX (Homo sapiens) (UniProt P51813)", "assay": "activity of Bmx(h) at 1.0 µM in the Eurofins Kinase panel"}, "[24]": {"molecular_target": "cGMP-dependent protein kinase 1 (Homo sapiens) (UniProt Q13976)", "assay": "activity of PKG1beta(h) at 1.0 µM in the Eurofins Kinase panel"}, "[25]": {"molecular_target": "[Pyruvate dehydrogenase (acetyl-transferring)] kinase isozyme 4, mitochondrial (Homo sapiens) (UniProt Q16654)", "assay": "activity of PDHK4(h) at 1.0 µM in the Eurofins Kinase panel"}, "[26]": {"molecular_target": "Ephrin type-A receptor 1 (Homo sapiens) (UniProt P21709)", "assay": "activity of EphA1(h) at 1.0 µM in the Eurofins Kinase panel"}, "[27]": {"molecular_target": "Serine/threonine-protein kinase TAO3 (Homo sapiens) (UniProt Q9H2K8)", "assay": "activity of TAO3(h) at 1.0 µM in the Eurofins Kinase panel"}, "[28]": {"molecular_target": "Death-associated protein kinase 3 (Homo sapiens) (UniProt O43293)", "assay": "activity of ZIPK(h) at 1.0 µM in the Eurofins Kinase panel"}, "[29]": {"molecular_target": "Tau-tubulin kinase 1 (Homo sapiens) (UniProt Q5TCY1)", "assay": "activity of TTBK1(h) at 1.0 µM in the Eurofins Kinase panel"}, "[30]": {"molecular_target": "Mitogen-activated protein kinase kinase kinase 5 (Homo sapiens) (UniProt Q99683)", "sequence (Q99683 whole entry)": "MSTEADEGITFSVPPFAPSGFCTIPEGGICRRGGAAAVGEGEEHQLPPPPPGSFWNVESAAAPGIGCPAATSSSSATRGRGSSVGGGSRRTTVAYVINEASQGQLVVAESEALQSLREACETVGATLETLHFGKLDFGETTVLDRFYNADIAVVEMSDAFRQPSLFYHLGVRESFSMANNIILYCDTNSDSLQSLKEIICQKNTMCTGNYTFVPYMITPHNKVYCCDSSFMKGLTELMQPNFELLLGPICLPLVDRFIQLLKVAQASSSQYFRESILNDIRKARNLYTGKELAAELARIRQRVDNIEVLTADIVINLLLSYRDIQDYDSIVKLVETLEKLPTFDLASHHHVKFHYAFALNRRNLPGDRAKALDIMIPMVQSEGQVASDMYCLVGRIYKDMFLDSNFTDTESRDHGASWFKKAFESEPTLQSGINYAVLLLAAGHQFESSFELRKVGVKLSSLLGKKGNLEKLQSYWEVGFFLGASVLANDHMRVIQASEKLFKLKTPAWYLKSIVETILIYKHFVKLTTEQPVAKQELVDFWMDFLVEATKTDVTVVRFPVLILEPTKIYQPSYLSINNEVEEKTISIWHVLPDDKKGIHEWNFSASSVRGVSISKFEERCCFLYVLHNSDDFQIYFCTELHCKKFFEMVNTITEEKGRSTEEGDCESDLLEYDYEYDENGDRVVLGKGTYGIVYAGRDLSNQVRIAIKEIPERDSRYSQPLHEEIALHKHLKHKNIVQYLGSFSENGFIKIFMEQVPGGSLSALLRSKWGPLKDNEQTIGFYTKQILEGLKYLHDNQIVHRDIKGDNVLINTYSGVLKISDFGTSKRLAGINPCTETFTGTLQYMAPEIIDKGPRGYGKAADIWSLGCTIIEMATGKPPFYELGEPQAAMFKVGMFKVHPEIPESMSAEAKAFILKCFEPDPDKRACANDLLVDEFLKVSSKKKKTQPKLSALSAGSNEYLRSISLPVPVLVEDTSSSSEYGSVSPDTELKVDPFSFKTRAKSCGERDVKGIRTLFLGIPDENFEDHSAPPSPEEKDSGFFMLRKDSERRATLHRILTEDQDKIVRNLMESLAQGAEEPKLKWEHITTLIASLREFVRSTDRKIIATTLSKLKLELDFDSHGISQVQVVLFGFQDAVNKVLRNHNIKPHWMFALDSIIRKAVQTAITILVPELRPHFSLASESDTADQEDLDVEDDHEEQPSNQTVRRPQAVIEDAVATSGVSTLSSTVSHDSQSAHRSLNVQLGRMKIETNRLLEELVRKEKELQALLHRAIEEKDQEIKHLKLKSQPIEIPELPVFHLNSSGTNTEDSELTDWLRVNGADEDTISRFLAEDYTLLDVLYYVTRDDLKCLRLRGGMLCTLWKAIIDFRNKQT", "assay": "activity of ASK1(h) at 1.0 µM in the Eurofins Kinase panel"}, "[31]": {"molecular_target": "Serine/threonine-protein kinase PLK4 (Homo sapiens) (UniProt O00444)", "assay": "activity of Plk4(h) at 1.0 µM in the Eurofins Kinase panel"}, "[32]": {"molecular_target": "Mitogen-activated protein kinase 13 (Homo sapiens) (UniProt O15264)", "assay": "activity of SAPK4(h) at 1.0 µM in the Eurofins Kinase panel"}, "[33]": {"molecular_target": "Serine/threonine-protein kinase D2 (Homo sapiens) (UniProt Q9BZL6)", "assay": "activity of PKD2(h) at 1.0 µM in the Eurofins Kinase panel"}, "[34]": {"molecular_target": "Serine/threonine-protein kinase SIK1 (Homo sapiens) (UniProt P57059)", "assay": "activity of SIK(h) at 1.0 µM in the Eurofins Kinase panel"}, "[35]": {"molecular_target": "Ephrin type-B receptor 3 (Homo sapiens) (UniProt P54753)", "assay": "activity of EphB3(h) at 1.0 µM in the Eurofins Kinase panel"}, "[36]": {"molecular_target": "Platelet-derived growth factor receptor alpha (Homo sapiens) (UniProt P16234)", "sequence (P16234 whole entry)": "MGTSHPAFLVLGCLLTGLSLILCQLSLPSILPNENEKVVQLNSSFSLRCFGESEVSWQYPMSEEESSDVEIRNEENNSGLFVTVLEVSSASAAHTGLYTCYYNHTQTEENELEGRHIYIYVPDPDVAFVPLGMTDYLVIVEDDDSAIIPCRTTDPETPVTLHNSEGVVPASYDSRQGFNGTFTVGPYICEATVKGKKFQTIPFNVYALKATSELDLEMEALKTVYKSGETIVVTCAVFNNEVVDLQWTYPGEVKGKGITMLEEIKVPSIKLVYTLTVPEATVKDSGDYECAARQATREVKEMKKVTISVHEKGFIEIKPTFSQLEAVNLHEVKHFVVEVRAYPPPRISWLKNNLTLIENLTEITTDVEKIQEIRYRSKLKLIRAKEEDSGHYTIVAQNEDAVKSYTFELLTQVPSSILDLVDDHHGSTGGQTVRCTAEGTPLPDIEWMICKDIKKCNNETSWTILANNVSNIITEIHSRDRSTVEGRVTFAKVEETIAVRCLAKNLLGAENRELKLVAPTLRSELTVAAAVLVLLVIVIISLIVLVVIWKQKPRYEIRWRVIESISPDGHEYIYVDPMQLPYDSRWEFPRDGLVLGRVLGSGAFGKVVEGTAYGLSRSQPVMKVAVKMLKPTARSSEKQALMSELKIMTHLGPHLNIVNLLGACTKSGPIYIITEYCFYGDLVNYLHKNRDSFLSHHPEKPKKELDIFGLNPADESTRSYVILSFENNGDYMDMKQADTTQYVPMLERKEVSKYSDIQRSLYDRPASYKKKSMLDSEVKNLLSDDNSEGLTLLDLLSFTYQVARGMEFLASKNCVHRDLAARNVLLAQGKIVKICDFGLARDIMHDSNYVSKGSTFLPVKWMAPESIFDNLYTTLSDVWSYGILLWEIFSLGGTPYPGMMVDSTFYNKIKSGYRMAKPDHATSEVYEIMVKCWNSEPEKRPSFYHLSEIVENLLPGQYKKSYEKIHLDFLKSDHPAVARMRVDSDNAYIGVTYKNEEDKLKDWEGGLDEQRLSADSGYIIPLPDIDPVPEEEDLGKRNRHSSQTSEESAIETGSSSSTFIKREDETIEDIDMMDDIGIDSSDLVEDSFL", "assay": "activity of PDGFRalpha(h) at 1.0 µM in the Eurofins Kinase panel"}, "[37]": {"molecular_target": "Receptor-type tyrosine-protein kinase FLT3 (Homo sapiens) (UniProt P36888)", "assay": "activity of Flt3(h) at 1.0 µM in the Eurofins Kinase panel"}, "[38]": {"molecular_target": "SRSF protein kinase 3 (Homo sapiens) (UniProt Q9UPE1)", "assay": "activity of MSSK1(h) at 1.0 µM in the Eurofins Kinase panel"}, "[39]": {"molecular_target": "Ephrin type-A receptor 7 (Homo sapiens) (UniProt Q15375)", "assay": "activity of EphA7(h) at 1.0 µM in the Eurofins Kinase panel"}},
  "data": [
    {"smiles": "Cc1cc2c(-c3ccc(NC(=O)[C@H](N)CC(C)(C)C)cc3C)ccnc2[nH]1", "values": [
      {"measurement": "activity", "setting": "[1]", "result": 99, "unit": "%"},
      {"measurement": "activity", "setting": "[2]", "result": 102, "unit": "%"},
      {"measurement": "activity", "setting": "[3]", "result": 80, "unit": "%"},
      {"measurement": "activity", "setting": "[4]", "result": 98, "unit": "%"},
      {"measurement": "activity", "setting": "[5]", "result": 83, "unit": "%"},
      {"measurement": "activity", "setting": "[6]", "result": 88, "unit": "%"},
      {"measurement": "activity", "setting": "[7]", "result": 109, "unit": "%"},
      {"measurement": "activity", "setting": "[8]", "result": 95, "unit": "%"},
      {"measurement": "activity", "setting": "[9]", "result": 97, "unit": "%"},
      {"measurement": "activity", "setting": "[10]", "result": 85, "unit": "%"},
      {"measurement": "activity", "setting": "[11]", "result": 81, "unit": "%"},
      {"measurement": "activity", "setting": "[12]", "result": 91, "unit": "%"},
      {"measurement": "activity", "setting": "[13]", "result": 99, "unit": "%"},
      {"measurement": "activity", "setting": "[14]", "result": 111, "unit": "%"},
      {"measurement": "activity", "setting": "[15]", "result": 106, "unit": "%"},
      {"measurement": "activity", "setting": "[16]", "result": 100, "unit": "%"},
      {"measurement": "activity", "setting": "[17]", "result": 95, "unit": "%"},
      {"measurement": "activity", "setting": "[18]", "result": 89, "unit": "%"},
      {"measurement": "activity", "setting": "[19]", "result": 110, "unit": "%"},
      {"measurement": "activity", "setting": "[20]", "result": 118, "unit": "%"},
      {"measurement": "activity", "setting": "[21]", "result": 96, "unit": "%"},
      {"measurement": "activity", "setting": "[22]", "result": 97, "unit": "%"},
      {"measurement": "activity", "setting": "[23]", "result": 97, "unit": "%"},
      {"measurement": "activity", "setting": "[24]", "result": 92, "unit": "%"},
      {"measurement": "activity", "setting": "[25]", "result": 101, "unit": "%"},
      {"measurement": "activity", "setting": "[26]", "result": 92, "unit": "%"},
      {"measurement": "activity", "setting": "[27]", "result": 100, "unit": "%"},
      {"measurement": "activity", "setting": "[28]", "result": 94, "unit": "%"},
      {"measurement": "activity", "setting": "[29]", "result": 96, "unit": "%"},
      {"measurement": "activity", "setting": "[30]", "result": 100, "unit": "%"},
      {"measurement": "activity", "setting": "[31]", "result": 92, "unit": "%"},
      {"measurement": "activity", "setting": "[32]", "result": 94, "unit": "%"},
      {"measurement": "activity", "setting": "[33]", "result": 95, "unit": "%"},
      {"measurement": "activity", "setting": "[34]", "result": 105, "unit": "%"},
      {"measurement": "activity", "setting": "[35]", "result": 79, "unit": "%"},
      {"measurement": "activity", "setting": "[36]", "result": 116, "unit": "%"},
      {"measurement": "activity", "setting": "[37]", "result": 84, "unit": "%"},
      {"measurement": "activity", "setting": "[38]", "result": 134, "unit": "%"},
      {"measurement": "activity", "setting": "[39]", "result": 114, "unit": "%"}
    ]}
  ]
}
